Laboratory results as given in patent US10273236B2, “Macrocyclic factor XIa inhibitors bearing heterocyclic groups” (Bristol-Myers Squibb Company, priority 2014, dated 2019).
Structures can show the parent of a compound that is named as a salt.

Experiments:
[1] = molecular target: T1, purified human Factor XIa (Homo sapiens, UniProt P03951); experiment: Factor XIa inhibition assay, chromogenic substrate S-2366 (Ki); type: biochemical
T1 construct: purchased Haematologic Technologies
Procedure: (§1) The effectiveness of compounds of the present invention as inhibitors of the coagulation Factors XIa, VIIa, IXa, Xa, XIIa, plasma kallikrein or thrombin, can be determined using a relevant purified serine protease, respectively, and an appropriate synthetic substrate. The rate of hydrolysis of the chromogenic or fluorogenic substrate by the relevant serine protease was measured both in the absence and presence of compounds of the present invention. […] A decrease in the rate of absorbance or fluorescence change in the presence of inhibitor is indicative of enzyme inhibition. Such methods are known to one skilled in the art. The results of this assay are expressed as the inhibitory constant, Ki.
Factor XIa determinations were made in 50 mM HEPES buffer at pH 7.4 containing 145 mM NaCl, 5 mM KCl, and 0.1% PEG 8000 (polyethylene glycol; JT Baker or Fisher Scientific). Determinations were made using purified human Factor XIa at a final concentration of 25-200 pM (Haematologic Technologies) and the synthetic substrate S-2366 (pyroGlu-Pro-Arg-pNA; Chromogenix or AnaSpec) at a concentration of 0.0002-0.001 M.
(§2) Values of Ki were determined by allowing the protease to react with the substrate in the presence of the inhibitor.
(§3) Reactions were allowed to go for periods of 20-180 minutes (depending on the protease) and the velocities (rate of absorbance or fluorescence change versus time) were measured.
(§4) The following relationships were used to calculate Ki values: (Vmax*S)/(Km+S) (vo−vs)/vs=I/(Ki(1+S/Km)) for a competitive inhibitor with one binding site; or vs/vo=A+((B−A)/1+((IC50/(I)^n))); and Ki=IC50/(1+S/Km) for a competitive inhibitor where: […]

[2] = molecular target: T2, purified human plasma kallikrein (Homo sapiens, UniProt P03952); experiment: Plasma kallikrein inhibition assay, chromogenic substrate S-2302 (Ki); type: biochemical
T2 construct: Plasma prekallikrein is a zymogen of a trypsin-like serine protease; purchased Enzyme Research Laboratories
Procedure: as §1
Plasma kallikrein determinations were made in 0.1 M sodium phosphate buffer at a pH of 7.5 containing 0.1-0.2 M sodium chloride and 0.5% PEG 8000. Determinations were made using purified human plasma kallikrein (Enzyme Research Laboratories) at a final assay concentration of 200 pM and the synthetic substrate S-2302 (H-(D)-Pro-Phe-Arg-pNA; Chromogenix) at a concentration of 0.00008-0.0004 M.
as §2, §3, §4

T1 sequence (P03951 388-625 limits assumed): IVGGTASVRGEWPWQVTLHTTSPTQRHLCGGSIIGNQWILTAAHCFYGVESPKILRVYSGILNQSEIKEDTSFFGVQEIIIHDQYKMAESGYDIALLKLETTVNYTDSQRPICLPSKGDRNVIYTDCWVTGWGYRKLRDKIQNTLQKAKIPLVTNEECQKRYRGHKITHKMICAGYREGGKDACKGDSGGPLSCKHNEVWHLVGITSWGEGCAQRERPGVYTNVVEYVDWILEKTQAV
T1 sequence (P03951 19-387 partner limits assumed): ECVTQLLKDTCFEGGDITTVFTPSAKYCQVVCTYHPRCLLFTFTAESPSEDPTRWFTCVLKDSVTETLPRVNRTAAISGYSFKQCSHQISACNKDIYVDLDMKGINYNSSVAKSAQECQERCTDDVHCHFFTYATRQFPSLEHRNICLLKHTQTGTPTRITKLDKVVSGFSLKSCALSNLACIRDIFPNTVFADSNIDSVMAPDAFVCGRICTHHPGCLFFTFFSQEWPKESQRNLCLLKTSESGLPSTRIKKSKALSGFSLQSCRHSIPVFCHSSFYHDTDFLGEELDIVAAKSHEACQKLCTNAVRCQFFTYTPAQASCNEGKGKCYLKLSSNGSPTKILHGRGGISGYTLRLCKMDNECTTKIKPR
T2 sequence (P03952 391-638 limits assumed): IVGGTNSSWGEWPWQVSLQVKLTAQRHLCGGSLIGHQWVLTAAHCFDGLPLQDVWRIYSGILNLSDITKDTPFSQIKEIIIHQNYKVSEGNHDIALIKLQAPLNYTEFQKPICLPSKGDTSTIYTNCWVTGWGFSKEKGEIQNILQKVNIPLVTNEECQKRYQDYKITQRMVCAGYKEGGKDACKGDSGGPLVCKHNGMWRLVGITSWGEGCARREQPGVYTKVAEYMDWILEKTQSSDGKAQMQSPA
T2 sequence (P03952 20-390 partner limits assumed): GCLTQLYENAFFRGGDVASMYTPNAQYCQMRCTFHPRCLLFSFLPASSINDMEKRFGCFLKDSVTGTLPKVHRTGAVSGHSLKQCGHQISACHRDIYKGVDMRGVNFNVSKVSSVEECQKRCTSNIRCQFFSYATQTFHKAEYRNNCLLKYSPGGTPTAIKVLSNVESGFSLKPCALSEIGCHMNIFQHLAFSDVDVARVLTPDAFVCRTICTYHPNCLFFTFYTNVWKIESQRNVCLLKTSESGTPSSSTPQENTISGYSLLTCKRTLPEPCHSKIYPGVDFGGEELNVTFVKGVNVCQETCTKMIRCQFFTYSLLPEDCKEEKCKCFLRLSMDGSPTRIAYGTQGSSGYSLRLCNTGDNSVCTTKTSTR

Structure (SMILES) | Ki [1] [nM] | Ki [2] [nM]
[2H]C([2H])([2H])n1ncc2c1-c1ccnc(c1)[C@@H](N1CCC(c3c(C(F)F)ccc(Cl)c3F)=CC1=O)CCC[C@@H](C)C(=O)N2 [Example 29, (9R,13S)-13-{4-[3-chloro-6-(difluoromethyl)-2-fluorophenyl]-6-oxo-1,2,3,6-tetrahydropyridin-1-yl}-3-(^2H3)methyl-9-methyl-3,4,7,15-tetraazatricyclo[12.3.1.0^2,6]octadeca-1(18),2(6),4,14,16-pentaen-8-one] | 0.6 | 6
C[C@@H]1CCC[C@H](N2CCC(c3cc(Cl)ccc3-n3ccnn3)=CC2=O)c2cc(ccn2)-c2c(cnn2C)NC1=O [Example 1, (9R,13S)-13-{4-[5-chloro-2-(1H-1,2,3-triazol-1-yl)phenyl]-6-oxo-1,2,3,6-tetrahydropyridin-1-yl}-3,9-dimethyl-3,4,7,15-tetraazatricyclo[12.3.1.0^2,6]octadeca-1(18),2(6),4,14,16-pentaen-8-one trifluoroacetate] | 1.8 | 24
C[C@@H]1CCC[C@H](N2CCC(c3c(C(F)(F)F)ccc(Cl)c3F)=CC2=O)c2cc(ccn2)-c2c(cnn2C(F)F)NC1=O [Example 14, (9R,13S)-13-{4-[3-chloro-2-fluoro-6-(trifluoromethyl)phenyl]-6-oxo-1,2,3,6-tetrahydropyridin-1-yl}-3-(difluoromethyl)-9-methyl-3,4,7,15-tetraazatricyclo[12.3.1.0^2,6]octadeca-1(18),2(6),4,14,16-pentaen-8-one] | 1 | 110
C[C@@H]1CCC[C@H](N2CCC(c3cc(Cl)ccc3-n3cc(Cl)nn3)=CC2=O)c2cc(ccn2)-c2c(cnn2C(F)F)NC1=O [Example 55, (9R,13S)-13-{4-[5-chloro-2-(4-chloro-1H-1,2,3-triazol-1-yl)phenyl]-6-oxo-1,2,3,6-tetrahydropyridin-1-yl}-3-(difluoromethyl)-9-methyl-3,4,7,15-tetraazatricyclo[12.3.1.0^2,6]octadeca-1(18),2(6),4,14,16-pentaen-8-one] | 0.1 | 6
C[C@@H]1CCC[C@H](N2CCC(c3cc(Cl)ccc3-n3ccnn3)=CC2=O)c2cc(ccn2)-c2nn(CC(=O)O)cc2NC1=O [Example 12, 2-(13-{4-[5-chloro-2-(1H-1,2,3-triazol-1-yl)phenyl]-6-oxo-1,2,3,6-tetrahydropyridin-1l-yl}-9-methyl-8-oxo-3,4,7,15-tetraazatricyclo[12.3.1.0^2,6]octadeca-1(18),2,5,14,16-pentaen-4-yl)acetic Acid] | 14 | 480
C[C@@H]1CCC[C@H](N2CCC(c3c(C(F)(F)F)ccc(Cl)c3F)=CC2=O)c2cc(ccn2)-c2c(cnn2C)NC1=O [Example 6] | 1.7 | 7
C[C@@H]1CCC[C@H](N2CCC(c3c(C(F)(F)F)ccc(Cl)c3F)=CC2=O)c2cccc(c2)-c2c(cnn2C)NC1=O [Example 49, (9R,13S)-13-{4-[3-chloro-2-fluoro-6-(trifluoromethyl)phenyl]-6-oxo-1,2,3,6-tetrahydropyridin-1-yl}-3,9-dimethyl-3,4,7-triazatricyclo[12.3.1.0^2,6]octadeca-1(18),2(6),4,14,16-pentaen-8-one] | 3.2 | 69
C[C@@H]1CCC[C@H](N2CCC(c3cc(Cl)ccc3-n3cc(Cl)nn3)=CC2=O)c2cc(ccn2)-c2[nH]ncc2NC1=O [Example 58, (9R,13S)-13-{4-[5-chloro-2-(4-chloro-1H-1,2,3-triazol-1-yl)phenyl]-6-oxo-1,2,3,6-tetrahydropyridin-1-yl}-9-methyl-3,4,7,15-tetraazatricyclo[12.3.1.0^2,6]octadeca-1(18),2(6),4,14,16-pentaen-8-one] | 2.4 | 46
C[C@@H]1CCC[C@H](N2CCC(c3cc(Cl)ccc3-n3cc(Cl)nn3)=CC2=O)c2cc(ccn2)-c2c(cnn2C2CC2(F)F)NC1=O (stereo partly drawn) [Example 56, (9R,13S)-13-{4-[5-chloro-2-(4-chloro-1H-1,2,3-triazol-1-yl)phenyl]-6-oxo-1,2,3,6-tetrahydropyridin-1-yl}-3-(2,2-difluorocyclopropyl)-9-methyl-3,4,7,15-tetraazatricyclo[12.3.1.0^2,6]octadeca-1(18),2(6),4,14,16-pentaen-8-one] | 0.36 | 30
CC(C)[C@@H]1CCC[C@H](N2CCC(c3cc(Cl)ccc3-n3cc(Cl)nn3)=CC2=O)c2cc(ccn2)-c2c(cnn2C)NC1=O [Example 25, (9S,13S)-13-{4-[5-chloro-2-(4-chloro-1H-1,2,3-triazol-1-yl)phenyl]-6-oxo-1,2,3,6-tetrahydropyridin-1-yl}-3-methyl-9-(propan-2-yl)-3,4,7,15-tetraazatricyclo[12.3.1.0^2,6]octadeca-1(18),2(6),4,14,16-pentaen-8-one] | 0.47 | 16
C[C@@H]1CCC[C@H](N2CCC(c3c(C#N)ccc(Cl)c3F)=CC2=O)c2cc(ccn2)-c2c(cnn2C)NC1=O [Example 39, 4-chloro-2-{1-[(9R,13S)-3,9-dimethyl-8-oxo-3,4,7,15-tetraazatricyclo[12.3.1.0^2,6]octadeca-1(18),2(6),4,14,16-pentaen-13-yl]-6-oxo-1,2,3,6-tetrahydropyridin-4-yl}-3-fluorobenzonitrile] | 1.1 | 120
C[C@@H]1CCC[C@H](N2CCC(c3c(OC(F)F)ccc(Cl)c3F)=CC2=O)c2cc(ccn2)-c2c(cnn2C)NC1=O [Example 23, (9R,13S)-13-{4-[3-chloro-6-(difluoromethoxy)-2-fluorophenyl]-6-oxo-1,2,3,6-tetrahydropyridin-1-yl}-3,9-dimethyl-3,4,7,15-tetraazatricyclo[12.3.1.0^2,6]octadeca-1(18),2(6),4,14,16-pentaen-8-one] | 0.92 | 7
C[C@@H]1CCC[C@H](N2CCC(c3cc(Cl)ccc3-n3cc(Cl)nn3)=CC2=O)c2cc(ccn2)-c2c(cnn2CC(=O)O)NC1=O [Example 16, 2-[(9R,13S)-13-{4-[5-chloro-2-(4-chloro-1H-1,2,3-triazol-1-yl)phenyl]-6-oxo-1,2,3,6-tetrahydropyridin-1-yl}-9-methyl-8-oxo-3,4,7,15-tetraazatricyclo [12.3.1.0^2,6]octadeca-1(18),2(6),4,14,16-pentaen-3-yl]acetic acid] | 0.19 | 17
C[C@@H]1CCC[C@H](N2CCC(c3c(C(F)(F)F)ccc(Cl)c3F)=CC2=O)c2cc(ccn2)-c2c(cnn2C2CC2)NC1=O [Example 60, (9R,13S)-13-{4-[3-chloro-2-fluoro-6-(trifluoromethyl)phenyl]-6-oxo-1,2,3,6-tetrahydropyridin-1-yl}-3-cyclopropyl-9-methyl-3,4,7,15-tetraazatricyclo[12.3.1.0^2,6]octadeca-1(18),2(6),4,14,16-pentaen-8-one] | 7.2 | 22
C[C@@H]1CCC[C@H](N2CCC(c3c(Cl)ccc(Cl)c3F)=CC2=O)c2cc(ccn2)-c2c(cnn2C(F)F)NC1=O [Example 31, (9R,13S)-13-[4-(3,6-dichloro-2-fluorophenyl)-6-oxo-1,2,3,6-tetrahydropyridin-1-yl]-3-(difluoromethyl)-9-methyl-3,4,7,15-tetraazatricyclo [12.3.1.0^2,6]octadeca-1(18),2(6),4,14,16-pentaen-8-one] | 1.9 | 11
C[C@@H]1CCC[C@H](N2CCC(c3cc(Cl)ccc3-n3ccnn3)=CC2=O)c2cc(ccn2)-c2c(cnn2C(F)F)NC1=O [Example 53, (9R)-13-{4-[5-chloro-2-(1H-1,2,3-triazol-1-yl)phenyl]-6-oxo-1,2,3,6-tetrahydropyridin-1-yl}-3-(difluoromethyl)-9-methyl-3,4,7,15-tetraazatricyclo[12.3.1.0^2,6]octadeca-1(18),2(6),4,14,16-pentaen-8-one] | 0.87 | 37
C[C@@H]1CCC[C@H](N2CCC(c3cc(Cl)ccc3-n3ccnn3)=CC2=O)c2cc(ccn2)-c2c(cnn2C2CC2)NC1=O (stereo in doubt) [Example 5, 13-{4-[5-chloro-2-(1H-1,2,3-triazol-1-yl)phenyl]-6-oxo-1,2,3,6-tetrahydropyridin-1-yl}-3-cyclopropyl-9-methyl-3,4,7,15-tetraazatricyclo [12.3.1.0^2,6]octadeca-1(18),2(6),4,14,16-pentaen-8-one] | 1.4 | 52
C[C@@H]1CCC[C@H](N2CCC(c3c(F)ccc(Cl)c3F)=CC2=O)c2cc(ccn2)-c2nn(-c3ccnc(O)c3)cc2NC1=O [Example 9, (9R,13S)-13-[4-(3-chloro-2,6-difluorophenyl)-6-oxo-1,2,3,6-tetrahydropyridin-1-yl]-4-(2-hydroxypyridin-4-yl)-9-methyl-3,4,7,15-tetraazatricyclo[12.3.1.0^2,6]octadeca-1(18),2,5,14,16-pentaen-8-one] | 14 | 14
